From EP0603240B1, “SAFENING HERBICIDAL PYRAZOLYLSULFONYLUREAS” (priority 1991, dated 1993)

How the values were obtained:
Type in all cases: in vivo
[1] = tested on: Giant foxtail (Setaria fabergi); experiment: Example 23, Procedure II: Antidote Nos. 15 and 17-21 against Herbicide No. 1, 13 days after application
Protocol: (§1) Containers were filled and compacted with a fumigated silt loam top soil to a depth of about 1.3 cm from the top of the container. A first container was designated as an untreated control, a second container was designated as a herbicide control, and a third container was designated as a herbicide + antidote test container. Each of the containers was seeded with a crop species. A measured amount of herbicide dispersed or dissolved in acetone was applied to a measured quantity of soil. To this same quantity of soil treated with herbicide, there was added a measured amount of antidote dispersed or dissolved in acetone. The quantity of soil treated with the herbicide and antidote was thoroughly mixed to incorporate the herbicide and antidote in the soil uniformly. The seed bed in the third container of soil was covered with the soil treated with the herbicide and antidote and the container was leveled. For each test series, the seed beds of the first and second containers were likewise covered by soil layers. the cover layer of the first container was not treated with herbicide or antidote.
(§2) The containers were then placed on a bench in a greenhouse and sub-irrigated as required for the duration of the test. […] Plant response is measured in terms of percent injury. Antidote efficacy is indicated as the difference in plant injury by the herbicide(s) without the antidote and with the antidote.
(§3) This procedure is the same as Procedure I, but modified in the manner that after incorporation of the chemicals (herbicide and antidote) the containers with the covered seedbed were treated with an initial overhead irrigation equivalent to 0.6 cm rainfall, then subsequently sub-irrigated as required on greenhouse benches.
(§4) In other greenhouse tests, using Procedure II described above, the safening efficacy of Antidote Nos. 15 and 17-21 was evaluated against Herbicide No. 1 in corn in the presence of Giant foxtail (Setaria fabergi) and Velvetleaf (Abutilon theophrasti) as representative annual monocotyledonous and dicotyledonous weeds, respectively.
(§5) Test results are shown in Tables 23A and 23B wherein the indicated plant inhibition represents the average of duplicate replications, with observations being made thirteen (13) days after application of the chemicals. Giant foxtail and Velvetleaf are represented by the symbols "GFT" and "VL", respectively. The data in Table 23A show the test results using the antidotes at 2.24 kg/ha, whereas in Table 23B, the antidotal rate was reduced to 0.56 kg/ha.

corn [2] = experiment: as above; conditions: for % Inhibition Corn: 13 days after application
Protocol: as §1, §2, §3, §4, §5

[3] = tested on: velvetleaf (Abutilon theophrasti); experiment: as above
Protocol: as §1, §2, §3, §4, §5

corn [4] = experiment: Example 19, Procedure II: Herbicide No. 1 + ERADICANE EXTRA with added antidotes; conditions: Herbicide No. 1 + ERADICANE EXTRA + added antidote, highest rates of antidotes and herbicides
Protocol: as §1, §2, §3
In the test reported in this example, the herbicidal composition was similar to that used in Example 16 in that Herbicide No. 1 was combined with EPTC (Herbicide No. 4) as a co-herbicide and the antidotes included Nos. 1, 2, 7, 13 and 15. However, in this test the EPTC was introduced as a formulation of ERADICANE (EPTC + the antidote R-25788, i.e., Antidote No. 1) at an application rate of 8.96 kg/ha. Thus, in this test two antidotes were present, viz. R-25788 and one of the auxilliary antidotes, No. 2, 13 and 15.
The test reported in this example was performed in the same manner and with the same antidotes used in Example 18, the only difference being the substitution of the commercial herbicidal product ERADICANE® EXTRA for ERADICANE®. ERADICANE EXTRA is a formulation containing both an antidote, i.e., R-29148 (Antidote No. 5 herein), and an extender, dietholate.

[5] = Table 23A, Herb. No. 1 0.14 Kg/Ha + antidote 2.24 Kg/ha
[6] = Table 23A, Herb. No. 1 0.28 Kg/Ha + antidote 2.24 Kg/ha
[7] = Table 23A, Herb. No. 1 0.56 Kg/Ha + antidote 2.24 Kg/ha
[8] = Table 23A, Herb. No. 1 1.12 Kg/Ha + antidote 2.24 Kg/ha
[9] = Table 23B, Herb. No. 1 0.14 Kg/Ha + antidote 0.56 Kg/ha
[10] = Table 23B, Herb. No. 1 0.28 Kg/Ha + antidote 0.56 Kg/ha
[11] = Table 23B, Herb. No. 1 0.56 Kg/Ha + antidote 0.56 Kg/ha
[12] = Table 23B, Herb. No. 1 1.12 Kg/Ha + antidote 0.56 Kg/ha

| Compound | % Inhibition GFT [1, 5] | % Inhibition GFT [1, 6] | % Inhibition GFT [1, 7] | % Inhibition GFT [1, 8] | % Inhibition GFT [1, 9] | % Inhibition GFT [1, 10] | % Inhibition GFT [1, 11] | % Inhibition GFT [1, 12] | % Inhibition Corn (corn [2]; [5]) | % Inhibition Corn (corn [2]; [6]) | % Inhibition Corn (corn [2]; [7]) | % Inhibition Corn (corn [2]; [8]) | % Inhibition Corn (corn [2]; [9]) | % Inhibition Corn (corn [2]; [10]) | % Inhibition Corn (corn [2]; [11]) | % Inhibition Corn (corn [2]; [12]) | % Inhibition VL [3, 5] | % Inhibition VL [3, 6] | % Inhibition VL [3, 7] | % Inhibition VL [3, 8] | other results |
| --- | --- | --- | --- | --- | --- | --- | --- | --- | --- | --- | --- | --- | --- | --- | --- | --- | --- | --- | --- | --- | --- |
| O=C(O)COC(c1ccccc1)c1ccccc1 [compound 19] | 15% | 30% | 50% | 70% | 25% | 40% | 60% | 65% | 0% | 0% | 5% | 15% | 0% | 5% | 15% | 40% | 90% | 85% | 95% | 95% | % Inhibition VL [3, 9]: 85%; % Inhibition VL [3, 10]: 85%; % Inhibition VL [3, 11]: 90%; % Inhibition VL [3, 12]: 90% |
| CCSC(=O)COC(c1ccccc1)c1ccccc1 [compound 21] | 10% | 20% | 35% | 70% | 20% | 45% | 50% | 75% | 0% | 0% | 5% | 30% | 0% | 5% | 20% | 35% | 85% | 85% | 95% | 95% | % Inhibition VL [3, 9]: 85%; % Inhibition VL [3, 10]: 90%; % Inhibition VL [3, 11]: 90%; % Inhibition VL [3, 12]: 95% |
| COC(=O)COC(c1ccccc1)c1ccccc1 [compound 20] | 15% | 35% | 40% | 65% | 15% | 20% | 60% | 75% | 0% | 0% | 0% | 15% | 0% | 5% | 20% | 40% | 90% | 90% | 85% | 90% | % Inhibition VL [3, 9]: 90%; % Inhibition VL [3, 10]: 90%; % Inhibition VL [3, 11]: 90%; % Inhibition VL [3, 12]: 95% |
| O=C(O)COC(c1ccccc1)c1ccccc1 [compound 18] | 15% | 30% | 65% | 70% | 15% | 20% | 60% | 60% | 0% | 0% | 10% | 10% | 5% | 5% | 20% | 30% | 90% | 95% | 95% | 95% | % Inhibition VL [3, 9]: 90%; % Inhibition VL [3, 10]: 95%; % Inhibition VL [3, 11]: 90%; % Inhibition VL [3, 12]: 95% |
| CC1COc2ccccc2N1C(=O)C(Cl)Cl (centres unmarked) [compound 17] | 25% | 25% | 60% | 70% | 15% | 40% | 55% | 65% | 0% | 0% | 15% | 25% | 0% | 10% | 20% | 30% | 95% | 85% | 95% | 95% | % Inhibition VL [3, 9]: 90%; % Inhibition VL [3, 10]: 90%; % Inhibition VL [3, 11]: 90%; % Inhibition VL [3, 12]: 95% |
| CC1(C)OC(c2ccco2)CN1C(=O)C(Cl)Cl (centres unmarked) [Antidote No. 15, Oxazolidine, 3-(dichloroacetyl)-5-(2-furanyl)-2,2-dimethyl] |  |  |  |  |  |  |  |  |  |  |  |  |  |  |  |  |  |  |  |  | corn injury (corn [4]): 25%; safening of corn, assessment in words (corn [2]; Herbicide No. 1, Tables 23A and 23B): greatly safened corn against the herbicide at all test rates |
